Experimental findings from ChEMBL document CHEMBL3351259, “Semi-synthesis of biologically active nisin hybrids composed of the native lanthionine ABC-fragment and a cross-stapled synthetic DE-fragment” (2014) are described below.

The nature of assay [1]: Induction of membrane leakage in large unilamellar vesicles composed of 1,2-dioleoyl-sn-glycero-3-phosphocholine and 0.2% lipid II […] at 5 uM by carboxyfluorescein based fluorescence spectroscopy. The format is functional.
The nature of assay [2]: Binding affinity affinity to lipid II (unknown origin) by nisin competitive assay.
In assay [3] the test system is Bacillus subtilis. Briefly: Antimicrobial activity against Bacillus subtilis assessed as inhibition of bacterial growth after 24 hrs by broth micro-dilution assay. The format is functional. For orientation: In broth dilution the organism is exposed to a series of concentrations in liquid medium.

Values after ≈ are worked out from the molar mass of the structure shown. Active and inactive are the calls of the source.

Take `C=C1NC(=O)[C@H]([C@@H](C)CC)NC(=O)[C@@H](NC(=O)/C(=C/C)NC(=O)[C@@H](N)[C@@H](C)CC)CSC[C@@H](C(=O)N[C@@H]2C(=O)N3CCC[C@H]3C(=O)NCC(=O)N[C@H](C(=O)N[C@@H](CCCCN)C(=O)N[C@@H]3C(=O)NCC(=O)N[C@@H](C)C(=O)N[C@@H](CC(C)C)C(=O)N[C@@H](CCSC)C(=O)NCC(=O)N[C@H](C(=O)N[C@@H](CC(N)=O)C(=O)NCc4cn([C@@H](CCCCN)C(=O)N[C@@H]5C/C=C/C[C@@H]6NC(=O)[C@@H](C/C=C/C[C@@H](C(=O)OC)NC(=O)[C@H](CC(N)=O)NC6=O)NC(=O)[C@H](C)NC5=O)nn4)CS[C@H]3C)CS[C@H]2C)NC(=O)[C@H](CC(C)C)NC1=O`: the outcome in assay [1] was inactive. Further, the outcome in assay [2] was Active.
For the molecule `C=C1NC(=O)[C@H]([C@@H](C)CC)NC(=O)[C@@H](NC(=O)/C(=C/C)NC(=O)[C@@H](N)[C@@H](C)CC)CSC[C@@H](C(=O)N[C@@H]2C(=O)N3CCC[C@H]3C(=O)NCC(=O)N[C@H](C(=O)N[C@@H](CCCCN)C(=O)N[C@@H]3C(=O)NCC(=O)N[C@@H](C)C(=O)N[C@@H](CC(C)C)C(=O)N[C@@H](CCSC)C(=O)NCC(=O)N[C@H](C(=O)N[C@@H](CC(N)=O)C(=O)O)CS[C@H]3C)CS[C@H]2C)NC(=O)[C@H](CC(C)C)NC1=O`, the minimum inhibitory concentration (MIC) in assay [3] was 6.2 µM (≈ 11.7 µg/mL). In assay [1], the outcome was inactive. Moreover, the outcome in assay [2] was Active.
As to `C=C1NC(=O)[C@H]([C@@H](C)CC)NC(=O)[C@@H](NC(=O)/C(=C/C)NC(=O)[C@@H](N)[C@@H](C)CC)CSC[C@@H](C(=O)N[C@@H]2C(=O)N3CCC[C@H]3C(=O)NCC(=O)N[C@H](C(=O)N[C@@H](CCCCN)C(N)=O)CS[C@H]2C)NC(=O)[C@H](CC(C)C)NC1=O`, the minimal inhibitory concentration (MIC) in assay [3] was determined as 167 µM (≈ 192 µg/mL). The result in assay [1] was inactive.
For `C=C1NC(=O)[C@H]([C@@H](C)CC)NC(=O)[C@@H](NC(=O)/C(=C/C)NC(=O)[C@@H](N)[C@@H](C)CC)CSC[C@@H](C(=O)N[C@@H]2C(=O)N3CCC[C@H]3C(=O)NCC(=O)N[C@H](C(=O)N[C@@H](CCCCN)C(=O)N[C@@H]3C(=O)NCC(=O)N[C@@H](C)C(=O)N[C@@H](CC(C)C)C(=O)N[C@@H](CCSC)C(=O)NCC(=O)N[C@H](C(=O)N[C@@H](CC(N)=O)C(=O)N[C@@H](CC(C)C)c4cn([C@@H](CCCCN)C(=O)N[C@@H]5C/C=C/C[C@@H]6NC(=O)[C@@H](C/C=C/C[C@@H](C(=O)N[C@@H](CCCCC)C(=O)NC)NC(=O)[C@H](CC(N)=O)NC6=O)NC(=O)[C@H](C)NC5=O)nn4)CS[C@H]3C)CS[C@H]2C)NC(=O)[C@H](CC(C)C)NC1=O`, the MIC in assay [3] came out at 4.07 µM (≈ 11.4 µg/mL). Also, the outcome in assay [1] was inactive.

As a reminder, the MIC is the smallest concentration in the dilution series that meets the test's criterion for growth inhibition.
